# Laboratory results as given in article PMC3125149, “SCYX-7158, an Orally-Active Benzoxaborole for the Treatment of Stage 2 Human African Trypanosomiasis” (PLoS Neglected Tropical Diseases, 2011).
# Where two headings read alike, the source gives them in different places.
# Assays:
# [1] = Pharmacokinetics in uninfected mice; assay type: in vivo, mouse
# [2] = Tolerability in mice during efficacy studies; assay type: in vivo; details: doses up to 100 mg/kg BID (200 mg/kg/day), highest dose administered
# [3] = system: T. b. brucei TREU 667; assay: Efficacy in mouse model for chronic (CNS, stage 2) HAT; assay type: in vivo
# Description: For evaluation against late-stage CNS infections, a chronic disease inducing strain (TREU 667) of T. b. brucei was used.[19] Mice were divided into groups of ten and each animal was infected i.p. with 1×10^4 parasites (200 μL). […] Louis, MO) administered by i.p. injection on day 4 after infection. […] Animals were checked for parasitemia once per week and were immediately removed from the cages and euthanized upon recrudescence. Animals were considered to be cured of a CNS infection if they were […] for at least 180 days after the end of the treatment period.
# [4] = Plasma protein binding by rapid equilibrium dialysis; assay type: in vitro ADME; details: for fraction unbound at 4 h: read-out: unbound fraction (fu)
# Description: Binding to human or mouse plasma proteins or mouse brain homogenate was determined by rapid equilibrium dialysis (RED) (Pierce, Rockford, IL) using a 48-well plate-based format according to the manufacturer's instructions. Briefly, test compound at the required concentrations was added to fresh human or mouse plasma (Bioreclamation, Liverpool, NY) or freshly prepared mouse brain homogenate. Duplicate aliquots of each sample were transferred into the sample chambers of the RED devices, and dialysis buffer (BupH PBS) was added to the buffer chambers. The plates were sealed and incubated at 37°C for 4 h. After dialysis, samples collected from the buffer and tissue chambers were treated with ice-cold methanol (3 volumes for plasma, 4 volumes for brain) to precipitate proteins. The treated samples were centrifuged for 10 min at 3×10^3 g at 15°C. The supernatants were assayed for test compound by LC-MS/MS. Calibration standards and quality control samples were prepared in matched matrix and assayed with samples. Values for unbound and bound fractions and mass balance were calculated. Concordance of binding for each batch of plasma was confirmed by assay of warfarin, imipramine and carbamezapine. Acceptance criterion for mass balance was 70–120%.
# [5] = system: T. b. brucei; assay: Effect of serum on trypanocidal activity; assay type: cell-based; details: 25% mouse serum or 50% bovine serum
# Description: Compounds to be tested were serially diluted in DMSO and added to 96-well plates to give final concentrations ranging from 5 to 0.01 µg/mL. T. b. brucei parasites in the log phase of growth were diluted in HMI-9 media and added to each well for a final concentration of 1×10^4 parasites per well. For the sensitivity assays using T. b. rhodesiense and T. b. gambiense, pararasites were cultured in MEM supplemented with Baltz components (8), diluted in the aforementioned culture media, and added to each well at a density of 1×10^3 cells/well. The final concentration of DMSO was 0.5% and the total volume was 100 µL/well. After a 72 h incubation, resazurin (Sigma-Aldrich, St. Louis, MO) was added to each well [20 µL of 25 mg/100 mL stock in phosphate buffered saline (PBS)] and incubated for an additional 4–6 h.[22] To assess cell viability, fluorescence was quantified using an EnVision Multilabel Plate Reader (Perkin Elmer, Waltham, MA) at an excitation wavelength of 530 nm and emission of 590 nm. Triplicate data points were averaged to generate sigmoidal dose-response curves and determine IC50 values using XLfit curve fitting software from IDBS (Guilford, UK). The IC50 is defined as the amount of compound required to decrease parasite or cell viability by 50% compared to those grown in the absence of the test compound. […]
# [6] = Steady-state pharmacokinetics in T. brucei-infected mice; assay type: in vivo, mouse; details: for AUC(0-inf) / Cmax: mouse; for AUC(0-inf): read-out: AUC0-inf in brain tissue
# Description: The blood distribution, CNS disposition and pharmacokinetics of SCYX-7158 were evaluated in infected or non-infected rodents following intravenous or oral administration of compounds. Pharmacokinetics and bioavailability of SCYX-7158 were also evaluated in non-infected beagle dogs and cynomolgus monkeys. In-life phases of non-infected rodent studies were performed at Vivisource (Waltham, MA); studies in non-naïve cynomolgus monkeys were performed by SNBL USA (Everett, WA).
# Samples of plasma (25 µL) and CSF (10 µL) were treated with 3 volumes of ice-cold methanol (containing 25 ng/mL of 2-chloro-4-fluoro-N-(1-hydroxy-1,3-dihyrobenzo[c][1], [2]oxaborol-6-yl)benzamide or 25 ng/mL d6-SCYX-7158 as an internal standard) to precipitate proteins. Treated samples were gently mixed at room temperature for 10 min, and then centrifuged at approximately 3000×g for 15 min at 15°C. The supernatants were transferred to 96-well plates or HPLC vials for analysis by LC-MS/MS.
# Pharmacokinetic parameters were calculated from composite mean plasma or tissue data using non-compartmental (oral and intravenous routes) and bi-exponential (intravenous route) analyses in Microsoft Excel.
compound,measurement,setting,value
CC1(C)OB(O)c2cc(NC(=O)c3ccc(F)cc3C(F)(F)F)ccc21 [SCYX-7158],brain AUC0–24 h,"[1]; 4.3 mg/kg intravenous, brain",5570 ng·h/mL
same,clearance,"[1]; male, CD-1, mouse, plasma, 4.3 mg/kg intravenous, read-out: systemic clearance (CL) (converted)",1.48 mL/min/kg
same,Vd,"[1]; male, CD-1, mouse, plasma, 4.3 mg/kg intravenous, read-out: volume of distribution (Vdss)",1.69 L/kg
same,Cmax,"[1]; male, CD-1, mouse, oral dose of 56 mg/kg SCYX-7158, plasma",18000 ng/mL
same,tolerability,[2],well tolerated
same,cure rate,[3]; 12.5 mg/kg once daily oral over 7 days starting day 21 after infection,80%
same,cure rate,"[3]; 25 mg/kg once daily oral, 7 doses, starting day 21 after infection",100%
same,lowest effective oral dose in murine stage 2 study,"[3]; QD×7 days, oral",12.5 mg/kg
same,"fraction unbound at 4 h, 1 µg/mL",[4]; human plasma,0.013
same,"fraction unbound at 4 h, 50 µg/mL",[4]; human plasma,0.055
same,fraction unbound at 4 h,"[4]; mouse, mouse plasma at the MIC (∼0.6 µg/mL)",0.003
same,fraction unbound at 4 h,"[4]; mouse, mouse plasma at ∼15 µg/mL (Cmax at steady-state)",0.032
same,"fraction unbound at 4 h, 1 µg/mL","[4]; mouse, mouse plasma",0.0032
same,"fraction unbound at 4 h, 50 µg/mL","[4]; mouse, mouse plasma",0.0463
same,attenuation of in vitro IC50,[5],3–4 fold
same,time brain concentrations maintained at or above the MIC (0.6 µg/mL),[6]; 25 mg/kg dose,~24 h
same,AUC(0-inf),"[6]; Swiss Webster, brain, 12.5 mg/kg oral, 7 daily doses, infected mice",34200 ng·h/mL
same,Cmax,"[6]; Swiss Webster, brain, 12.5 mg/kg oral, 7 daily doses, infected mice, read-out: Cmax in brain tissue",6540 ng/mL
same,AUC(0-inf),"[6]; Swiss Webster, brain, 25 mg/kg oral, 7 daily doses, infected mice",81500 ng·h/mL
same,Cmax,"[6]; Swiss Webster, brain, 25 mg/kg oral, 7 daily doses, infected mice, read-out: Cmax in brain tissue",12000 ng/mL
same,Cmax,"[6]; plasma, 25 mg/kg doses, read-out: plasma Cmax at steady-state",~15000 ng/mL
